For 42 compounds, Emax and EC50 results are on record in patent US20240217966A1, “PHARMACEUTICAL COMPOSITION CONTAINING GLP-1 RECEPTOR AGONIST HAVING FUSED RING” (Shionogi & Co., Ltd., priority 2021, published 2024).

Where two headings read alike, the source gives them in different places.

The test deals with T1, Human GLP-1 receptor (Homo sapiens, UniProt P43220).
T1 construct: expressed in transfected cells
The test can be described thus: Measurement of GLP-1 receptor agonist activity (cAMP assay). It is filed as cell-based. A digest of the protocol:
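Agonism measured as cAMP accumulation by time-resolved FRET immunoassay in CHO-K1 cells stably expressing human GLP-1 receptor. Cells treated for 1 h at 37 °C with compound and forskolin (400 μM stock), in buffer containing the PDE inhibitors IBMX (0.1 mM) and RO20-1724 (0.2 mM).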

Where [1] appears, read: CHO-K1, hGLP-1R/CHO-K1 cells, cAMP, 100% = human GLP-1 (7-36) at 2 nM, 0% = DMSO only, read-out: Emax(%).
Where [2] appears, read: hGLP-1R/CHO-K1 cells, cAMP increase, 37° C. 1 hour.
Where [3] appears, read: CHO-K1, maximum effect, cAMP increase in GLP-1 R/CHO-K1 cells, 2 nM human GLP-1 (7-36) = 100%, DMSO only = 0%, read-out: Emax.
[4] abbreviates: cAMP increase in GLP-1 R/CHO-K1 cells, 2 nM human GLP-1 (7-36) = 100%, DMSO only = 0%.

T1 sequence (P43220 24-463): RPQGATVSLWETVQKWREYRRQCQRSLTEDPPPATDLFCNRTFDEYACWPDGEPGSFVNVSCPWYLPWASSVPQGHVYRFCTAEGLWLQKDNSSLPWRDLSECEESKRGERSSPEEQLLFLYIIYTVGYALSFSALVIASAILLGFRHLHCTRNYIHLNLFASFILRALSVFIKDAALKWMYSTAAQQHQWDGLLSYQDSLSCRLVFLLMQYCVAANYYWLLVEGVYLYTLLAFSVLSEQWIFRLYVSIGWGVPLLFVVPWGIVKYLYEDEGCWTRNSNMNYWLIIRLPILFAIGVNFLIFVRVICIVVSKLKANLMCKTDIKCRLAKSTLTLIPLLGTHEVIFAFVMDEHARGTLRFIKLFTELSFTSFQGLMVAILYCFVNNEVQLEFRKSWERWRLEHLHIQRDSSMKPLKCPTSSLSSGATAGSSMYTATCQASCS

Consider `C[C@H]1c2cc(OCc3ccc(Cl)cc3Cl)c(C(F)(F)F)cc2CCN1Cc1nc2ccc(C(=O)O)c(F)c2n1C[C@@H]1CCO1` [Compound I-201], for which, under setting [1], the Emax came out at 123%. This compound gave an EC50 under setting [2] of 0.274 nM.
As to `COc1ccc(COc2cc3c(cc2C(F)(F)F)CCN(Cc2nc4c(F)cc(C(=O)O)cc4n2C[C@@H]2CCO2)[C@H]3C)cc1` [Compound I-202], the Emax under setting [1] turned out to be 105%. Further, under setting [2], the response was half-maximal at 1.66 nM (EC50).
For `C[C@H]1c2cc(OCc3ccc(Cl)cn3)c(C(F)(F)F)cc2CCN1Cc1nc2c(F)cc(C(=O)O)cc2n1C[C@@H]1CCO1` [Compound I-203] the same measures were 104% and 0.31 nM.
As to `Cc1csc(COc2cc3c(cc2C(F)(F)F)CCN(Cc2nc4c(F)cc(C(=O)O)cc4n2C[C@@H]2CCO2)[C@H]3C)n1` [Compound I-204], under setting [1], the Emax amounted to 117%. Under setting [2], the EC50 amounted to 0.509 nM.
Turning to `C[C@H]1c2cc(OCc3ccc(Cl)cc3)c(C(F)(F)F)cc2CCN1Cc1nc2c(F)cc(C(=O)O)cc2n1C[C@@H]1CCO1` [Compound I-205], the Emax under setting [1] stood at 109%. The EC50 under setting [2] was determined as 0.447 nM.
On to `Cc1ccc(COc2cc3c(cc2C(F)(F)F)CCN(Cc2nc4c(F)cc(C(=O)O)cc4n2C[C@@H]2CCO2)[C@H]3C)cc1` [Compound I-206], for which, under setting [1], the Emax was 110%. Under setting [2], the EC50 came to 0.511 nM.
As for `C[C@H]1c2cc(OCc3ccc(C4CC4)cc3)c(C(F)(F)F)cc2CCN1Cc1nc2c(F)cc(C(=O)O)cc2n1C[C@@H]1CCO1` [Compound I-207], under setting [1], the Emax was found to be 90.3%. Besides, it took 1.72 nM to reach a half-maximal effect under setting [2] (EC50).
For `COc1cc(Cl)ccc1COc1cc2c(cc1C(F)(F)F)CCN(Cc1nc3c(F)cc(C(=O)O)cc3n1C[C@@H]1CCO1)[C@H]2C` [Compound I-208], under setting [1], the Emax amounted to 109%. The same compound showed an EC50 under setting [2] of 0.0824 nM.
On to `C[C@H]1c2cc(OCc3ccccc3Cl)c(C(F)(F)F)cc2CCN1Cc1nc2c(F)cc(C(=O)O)cc2n1C[C@@H]1CCO1` [Compound I-209], for which the Emax under setting [1] stood at 112%. The same compound yielded an EC50 under setting [2] of 0.984 nM.
For `C[C@H]1c2cc(OCc3ccc(F)cc3F)c(C(F)(F)F)cc2CCN1Cc1nc2c(F)cc(C(=O)O)cc2n1C[C@@H]1CCO1` [Compound I-210] the same measures were 113% and 0.434 nM.
Regarding `C[C@H]1c2cc(OCc3ccc(Cl)cc3Cl)c(C(F)(F)F)cc2CCN1Cc1nc2c(F)cc(C(=O)O)cc2n1C[C@@H]1CCO1` [Compound I-211], the Emax under setting [1] came out at 103%. The same compound gave an EC50 under setting [2] of 0.181 nM.
For `C[C@H]1c2cc(OCc3ccc(OC(F)F)cc3F)c(C(F)(F)F)cc2CCN1Cc1nc2c(F)cc(C(=O)O)cc2n1C[C@@H]1CCO1` [Compound I-212] the same measures were 104% and 1 nM.
As for `C[C@H]1c2cc(OCc3cc(F)c(Cl)cc3F)c(C(F)(F)F)cc2CCN1Cc1nc2c(F)cc(C(=O)O)cc2n1C[C@@H]1CCO1` [Compound I-213], under setting [1], the Emax stood at 122%. Under setting [2], this compound registered an EC50 of 0.366 nM.
With `C[C@H]1c2cc(OCc3ccc(C#N)cc3F)c(C(F)(F)F)cc2CCN1Cc1nc2c(F)cc(C(=O)O)cc2n1C[C@@H]1CCO1` [Compound I-214], the Emax under setting [1] stood at 104%. Under setting [2], this compound gave an EC50 of 0.392 nM.
The like results for `C[C@H]1c2cc(OCc3ccc(C(F)F)cc3F)c(C(F)(F)F)cc2CCN1Cc1nc2ccc(C(=O)O)cc2n1C[C@@H]1CCO1` [Compound I-215] were, in that order, 106% and 1.82 nM.
Consider `O=C(O)c1ccc2nc(CN3CCc4cc(C(F)(F)F)c(OCc5c(F)cc(C(F)F)cc5F)cc4C3)n(C[C@@H]3CCO3)c2c1` [Compound I-216], for which the Emax under setting [1] amounted to 103%. For the same compound, the EC50 under setting [2] was determined as 8.62 nM.
Turning to `O=C(O)c1ccc2nc(CN3CCc4cc(C(F)(F)F)c(OCc5c(F)cc(OC(F)F)cc5F)cc4C3)n(C[C@@H]3CCO3)c2c1` [Compound I-217], under setting [1], the Emax amounted to 103%. In addition, the EC50 under setting [2] is 2.34 nM.
The like results for `C[C@H]1c2nc(OCc3ccc(F)cc3)c(C(F)(F)F)cc2CCN1Cc1nc2ccc(C(=O)O)cc2n1C[C@@H]1CCO1` [Compound I-218] were, in that order, 109% and 0.179 nM.
For `C[C@H]1c2cc(OCc3ccc(C#N)cc3F)c(C(F)(F)F)cc2CCN1Cc1nc2ccc(C(=O)O)c(F)c2n1C[C@@H]1CCO1` [Compound I-219] the same measures were 114% and 1.2 nM.
For `C[C@H]1c2nc(OCc3ccc(F)cc3Cl)c(C(F)(F)F)cc2CCN1Cc1nc2ccc(C(=O)O)cc2n1C[C@@H]1CCO1` [Compound I-220] the same measures were 110% and 0.251 nM.
Turning to `C[C@H]1c2cc(OCc3ccc(C#N)cc3F)c(Cl)cc2CCN1Cc1nc2ccc(C(=O)O)cc2n1C[C@@H]1CCO1` [Compound I-221], the Emax under setting [1] came to 125%. Under setting [2], the EC50 turned out to be 6.07 nM.
Regarding `O=C(O)c1ccc2nc(CN3CCc4cc(C(F)(F)F)c(OCc5ccc(Cl)cc5F)nc4C3)n(C[C@@H]3CCO3)c2c1F` [Compound I-222], the Emax under setting [1] is 108%.
In the case of `C[C@H]1c2nc(OCc3ccc(Cl)cc3)c(C(F)(F)F)cc2CCN1Cc1nc2ccc(C(=O)O)c(F)c2n1C[C@@H]1CCO1` [Compound I-223], under setting [1], the Emax was 103%. The EC50 under setting [2] worked out at 0.12 nM.
With `COc1ccc(COc2cc3c(cc2C(F)(F)F)CCN(Cc2nc4c(OC)cc(C(=O)O)cc4n2C[C@@H]2CCO2)[C@H]3C)cc1` [Compound I-224], the Emax under setting [3] amounted to 110%. Under setting [4], this compound registered an EC50 of 1.41 nM.
The like results for `COc1cc(C(=O)O)cc2c1nc(CN1CCc3cc(C(F)(F)F)c(OCc4ccc(Cl)cn4)cc3[C@@H]1C)n2C[C@@H]1CCO1` [Compound I-225] were, in that order, 104% and 0.348 nM.
For `COc1cc(C(=O)O)cc2c1nc(CN1CCc3cc(C(F)(F)F)c(OCc4ccc(Cl)cc4)cc3[C@@H]1C)n2C[C@@H]1CCO1` [Compound I-226] the same measures were 112% and 0.628 nM.
In the case of `COc1cc(C(=O)O)cc2c1nc(CN1CCc3cc(C(F)(F)F)c(OCc4ccc(C)cc4)cc3[C@@H]1C)n2C[C@@H]1CCO1` [Compound I-227], the Emax under setting [3] came to 103%. Also, it took 0.3 nM to reach a half-maximal effect under setting [4] (EC50).
As to `COc1cc(C(=O)O)cc2c1nc(CN1CCc3cc(C(F)(F)F)c(OCc4ccc(C5CC5)cc4)cc3[C@@H]1C)n2C[C@@H]1CCO1` [Compound I-228], under setting [3], the Emax was 106%. Under setting [4], the midpoint of the response, the EC50, lay at 2.41 nM.
The like results for `COc1cc(Cl)ccc1COc1cc2c(cc1C(F)(F)F)CCN(Cc1nc3c(OC)cc(C(=O)O)cc3n1C[C@@H]1CCO1)[C@H]2C` [Compound I-229] were, in that order, 105% and 0.0656 nM.
For `COc1cc(C(=O)O)cc2c1nc(CN1CCc3cc(C(F)(F)F)c(OCc4ccccc4Cl)cc3[C@@H]1C)n2C[C@@H]1CCO1` [Compound I-230] the same measures were 109% and 0.693 nM.
For `COc1cc(C(=O)O)cc2c1nc(CN1CCc3cc(C(F)(F)F)c(OCc4ccc(F)cc4F)cc3[C@@H]1C)n2C[C@@H]1CCO1` [Compound I-231] the same measures were 106% and 0.282 nM.
As to `COc1cc(C(=O)O)cc2c1nc(CN1CCc3cc(C(F)(F)F)c(OCc4ccc(Cl)cc4Cl)cc3[C@@H]1C)n2C[C@@H]1CCO1` [Compound I-232], under setting [3], the Emax is 117%. The response under setting [4] was half-maximal at 0.223 nM (EC50).
The like results for `COc1cc(C(=O)O)cc2c1nc(CN1CCc3cc(C(F)(F)F)c(OCc4ccc(OC(F)F)cc4F)cc3[C@@H]1C)n2C[C@@H]1CCO1` [Compound I-233] were, in that order, 97.7% and 1.29 nM.
Turning to `COc1cc(C(=O)O)cc2c1nc(CN1CCc3cc(C(F)(F)F)c(OCc4cc(F)c(Cl)cc4F)cc3[C@@H]1C)n2C[C@@H]1CCO1` [Compound I-234], the Emax under setting [3] amounted to 109%. Also, the response under setting [4] was half-maximal at 0.354 nM (EC50).
For `COc1cc(C(=O)O)cc2c1nc(CN1CCc3cc(C(F)(F)F)c(OCc4ccc(C#N)cc4F)cc3[C@@H]1C)n2C[C@@H]1CCO1` [Compound I-235], under setting [3], the Emax came to 102%. For the same compound, the EC50 under setting [4] stood at 0.378 nM.
For the compound `COc1cc(C(=O)O)cc2c1nc(CN1CCc3cc(C(F)(F)F)c(OCc4ccc(F)cc4)cc3[C@@H]1C)n2C[C@@H]1CCO1` [Compound I-236], the Emax under setting [3] was 106%. The EC50 under setting [4] stood at 0.429 nM.
For `COc1cc(C(=O)O)cc2c1nc(CN1CCc3cc(C(F)(F)F)c(OCc4c(F)cc(Cl)cc4F)cc3[C@@H]1C)n2C[C@@H]1CCO1` [Compound I-237] the same measures were 102% and 0.103 nM.
Regarding `COc1cc(C(=O)O)cc2c1nc(CN1CCc3cc(C(F)(F)F)c(OCc4c(F)cc(F)cc4F)cc3[C@@H]1C)n2C[C@@H]1CCO1` [Compound I-238], the Emax under setting [3] is 106%. In addition, the EC50 under setting [4] turned out to be 0.36 nM.
`C[C@H]1c2nc(OCc3ccc(Cl)cc3)c(C(F)(F)F)cc2CCN1Cc1nc2c(F)cc(C(=O)O)cc2n1C[C@@H]1CCO1` [Compound I-239]: the Emax under setting [3] was 95.3%. This compound also yielded an EC50 under setting [4] of 0.0882 nM.
For `C[C@H]1c2nc(OCc3ccc(C#N)cc3F)c(C(F)(F)F)cc2CCN1Cc1nc2ccc(C(=O)O)c(F)c2n1C[C@@H]1CCO1` [Compound I-240] the same measures were 122% and 0.0648 nM.
The like results for `C[C@H]1c2nc(OCc3ccc(C#N)cc3F)c(C(F)(F)F)cc2CCN1Cc1nc2c(F)cc(C(=O)O)cc2n1C[C@@H]1CCO1` [Compound I-241] were, in that order, 125% and 0.0302 nM.
Consider `COc1cc(C(=O)O)cc2c1nc(CN1CCc3cc(C(F)(F)F)c(OCc4ccc(C#N)cc4F)nc3[C@@H]1C)n2C[C@@H]1CCO1` [Compound I-242], for which, under setting [3], the maximal effect (Emax) was 116%. The EC50 under setting [4] came to 0.0124 nM.
